Patent US6548511B1, “Insecticidal/acaricidal agents” (Sagami Chemical Research Center, priority 1997, dated 2003)

What was measured:
common cutworm larvae = assay: Insecticidal effect on common cutworm larvae; format: in vivo; conditions: 500 ppm, wettable powder, cabbage leaf disc soaked, 3rd instar larvae, 25° C., 5 days
Method: A disc of cabbage leaf (6 cm in diameter) was cut out and soaked for 1 minute in a water-diluted solution of the insecticide of the present invention (wettable powder) produced in accordance with the method of Formulation Example 1. After the soaking, the leaf disc was air-dried and set in a plastic cup (7 cm in inner diameter), and 5 common cutworm larvae of 3rd instar were released therein (one concentration, two repetition). The thus released larvae were kept in a constant temperature chamber at 25° C., mortality and agony of the larvae were examined 5 days thereafter, and insecticidal ratio (%) was calculated by defining the larva in agony as ½ dead larvae.

diamondback moth larvae = assay: Insecticidal effect on diamondback moth larvae; format: in vivo; conditions: 500 ppm, wettable powder, cabbage leaf disc soaked, 3rd instar larvae, 4 days after release
Method: A disc of cabbage leaf (6 cm in diameter) was cut out and soaked for 1 minute in a water-diluted solution of the insecticide of the present invention (wettable powder) produced in accordance with the method of Formulation Example 1. After the soaking, the disc was air-dried and set in a plastic cup (7 cm in inner diameter), and 5 diamondback moth larvae of 3rd instar were released therein (one concentration, two repetition). After 4 days of the release of larvae, mortality and agony of the larvae were examined, and insecticidal ratio (%) was calculated by defining the larvae in agony as ½ dead larvae.

[1] = tested on: two-spotted spider mite female imagoes; assay: Acaricidal effect on two-spotted spider mite imagoes; format: in vivo; conditions: 500 ppm, wettable powder sprayed on kidney bean leaf disc, 24 hours after treatment
Method: A total of 10 two-spotted spider mite female imagoes were released on a disc cut out from a kidney bean leaf (3 cm in diameter). The acaricide of the present invention (wettable powder) produced in accordance with the method of Formulation Example 1 was diluted with water to a predetermined concentration, and the solution (3.5 ml) was applied on the just described cut leaf (one concentration, two repetition) using a rotary sprayer (manufactured by Mizuho Rika). After 24 hours of the treatment, mortality of the imagoes was examined to calculate acaricidal ratio (%).

[2] = tested on: two-spotted spider mite eggs; assay: Acaricidal effect on two-spotted spider mite eggs; format: in vivo; conditions: 500 ppm, wettable powder sprayed on kidney bean leaf disc, egg-killing ratio 8 days after treatment
Method: A total of 5 two-spotted spider mite female imagoes were released on a disc cut out from a kidney bean leaf (3 cm in diameter). The thus released female imagoes were allowed to lay eggs on the cut leaf for 20 hours and then removed. The acaricide of the present invention (wettable powder) produced in accordance with the method of Formulation Example 1 was diluted with water to a predetermined concentration, and the solution (3.5 ml) was applied on the just described disc (one concentration, two repetition) using a rotary sprayer (manufactured by Mizuho Rika). After 8 days of the treatment, the number of unhatched eggs and the number of hatched imagoes were examined to calculate egg-killing ratio (%).

green peach aphid larvae = assay: Insecticidal effect on green peach aphid larvae; format: in vivo; conditions: 500 ppm, emulsifiable concentrate, radish leaf soaked, 25° C., 4th day after treatment
Method: A petiole part of a radish leaf was put into a screw bottle (capacity: 10 ml) filled with water, and 5 to 6 per one leaf of green peach aphid imagoes were inoculated. After the inoculation, the resulting bottle was put into a glass cylinder (3.5 cm in diameter and 15 cm in height, equipped with a mesh cover), and the green peach aphid imagoes were allowed to propagate in a constant temperature chamber at 25° C. for 3 days. After removal of the green peach aphid imagoes from the radish leaf, the resulting leaf was soaked (about 5 seconds) in a water-diluted solution of the insecticide (emulsifiable concentrate) of the present invention and then returned into the glass cylinder (one concentration, two repetition). The cylinder was kept in the constant temperature chamber of 25° C., and the number of aphid individuals on the radish leaf was examined on the 4th day after the treatment to calculate the insecticidal ratio (%) based on the result.

[3] = tested on: adzuki bean weevil imagoes; assay: Insecticidal effect on adzuki bean weevil imagoes; format: in vivo; conditions: 500 ppm, emulsifiable concentrate sprayed, 25° C., 4 days after treatment
[4] = tested on: brown rice planthopper larvae; assay: Insecticidal effect on brown rice planthopper larvae; format: in vivo; conditions: 500 ppm, emulsifiable concentrate sprayed on rice seedling, 4th instar larvae, 5 days after treatment
Method: A sprouted rice seedling was set in a glass cylinder (3 cm in inner diameter×17 cm in length), and 5 brown rice planthopper larvae of 4th instar were released therein. A water-diluted solution (0.5 ml) of the insecticide of the present invention (emulsifiable concentrate) produced in accordance with the method of Formulation Example 3 was applied to the just described glass cylinder (one concentration, two repetition) using a sprayer (manufactured by Mizuho Rika). After 5 days of the treatment, mortality and agony of the larvae were examined, and insecticidal ratio (%) was calculated by defining the larva in agony as ½ dead larvae.

SMILES	melting point [°C]	Insecticidal ratio (%) (common cutworm larvae)	other results
CCn1c(Nc2cc(Cl)ccc2Cl)nc(C(F)(F)F)cc1=O	167 to 168		
Cn1c(Nc2cc(C(F)(F)F)ccc2Cl)nc(C(F)(F)F)cc1=O [Compound No. 20, 2-(2-chloro-5-trifluoromethylphenyl)amino-3-methyl-6-trifluoromethyl-4(3H)-pyrimidinone]		100	Insecticidal ratio (%) (diamondback moth larvae): 100%
CCCCn1c(Nc2cc(C(F)(F)F)ccc2Cl)nc(C(F)(F)F)cc1=O [Compound No. 22]			Acaricidal ratio (%) imagoes [1]: 100%; Acaricidal ratio (%) eggs [2]: 100%
CCn1c(Nc2ccc(C(F)(F)F)cc2C(F)(F)F)nc(C(F)(F)F)c(Cl)c1=O [Compound No. 34, 2-{2,4-bis(trifluoromethyl)phenyl}amino-5-chloro-3-ethyl-6-trifluoromethyl-4(3H)-pyrimidinone]	124		
Cn1c(Nc2cc(C(F)(F)F)ccc2C(F)(F)F)nc(C(F)(F)F)cc1=O [Compound No. 46, 2-{2,5-bis(trifluoromethyl)phenyl}amino-3-methyl-6-trifluoromethyl-4(3H)-pyrimidinone]		100	Insecticidal ratio (%) (green peach aphid larvae): 100%; Insecticidal ratio (%) [3]: 100%; Insecticidal ratio (%) [4]: 100%; Insecticidal ratio (%) (diamondback moth larvae): 100%; Acaricidal ratio (%) imagoes [1]: 100%; Acaricidal ratio (%) eggs [2]: 100%
CCn1c(Nc2cc(C(F)(F)F)ccc2C(F)(F)F)nc(C(F)(F)F)cc1=O [Compound No. 47, 2-{2,5-bis(trifluoromethyl)phenyl}amino-3-ethyl-6-trifluoromethyl-4(3H)-pyrimidinone]	173 to 175		
CCCn1c(Nc2cc(C(F)(F)F)ccc2C(F)(F)F)nc(C(F)(F)F)c(Cl)c1=O [Compound No. 51, 2-{2,5-bis(trifluoromethyl)phenyl}amino-5-chloro-3-propyl-6-trifluoromethyl-4(3H)-pyrimidinone]	124 to 126		
CC(C)Cn1c(Nc2cc(C(F)(F)F)ccc2C(F)(F)F)nc(C(F)(F)F)cc1=O [Compound No. 56, 2-{2,5-bis(trifluoromethyl)phenyl}amino-3-isobutyl-6-trifluoromethyl-4(3H)-pyrimidinone]		100	Insecticidal ratio (%) [3]: 100%; Insecticidal ratio (%) (diamondback moth larvae): 100%; Acaricidal ratio (%) imagoes [1]: 100%; Acaricidal ratio (%) eggs [2]: 100%
CCC(C)n1c(Nc2cc(C(F)(F)F)ccc2C(F)(F)F)nc(C(F)(F)F)cc1=O (stereo not shown) [Compound No. 58, 2-{2,5-bis(trifluoromethyl)phenyl}amino-3-sec-butyl-6-trifluoromethyl-4(3H)-pyrimidinone]	165 to 167		
CCC(C)n1c(Nc2cc(C(F)(F)F)ccc2C(F)(F)F)nc(C(F)(F)F)c(Cl)c1=O (stereo not shown) [Compound No. 59, 2-{2,5-bis(trifluoromethyl)phenyl}amino-3-sec-butyl-5-chloro-6-trifluoromethyl-4(3H)-pyrimidinone]	133 to 135		
O=c1cc(C(F)(F)F)nc(Nc2cc(C(F)(F)F)ccc2C(F)(F)F)n1C1CCCCC1 [Compound No. 64, 2-{2,5-bis(trifluoromethyl)phenyl}amino-3-cyclohexyl-6-trifluoromethyl-4(3H)-pyrimidinone]	154 to 156		
O=c1c(Cl)c(C(F)(F)F)nc(Nc2cc(C(F)(F)F)ccc2C(F)(F)F)n1C1CCCCC1 [Compound No. 65, 2-{2,5-bis(trifluoromethyl)phenyl}amino-5-chloro-3-cyclohexyl-6-trifluoromethyl-4(3H)-pyrimidinone]	181 to 183		
C=CCn1c(Nc2cc(C(F)(F)F)ccc2C(F)(F)F)nc(C(F)(F)F)cc1=O [Compound No. 66, 3-allyl-2-{2,5-bis(trifluoromethyl)phenyl}amino-6-trifluoromethyl-4(3H)pyrimidinone]	116 to 118		
CC(C)Cn1c(Nc2cc(C(F)(F)F)ccc2Cl)nc(C(F)(F)F)cc1=O [compound 23, 2-(2-chloro-5-trifluoromethylphenyl)amino-3-isobutyl-6-trifluoromethyl-4(3H)-pyrimidinone]		100	
Cn1c(Nc2cc(C(F)(F)F)cc(C(F)(F)F)c2)nc(C(F)(F)F)cc1=O [compound 69, 2-{3,5-bis(trifluoromethyl)phenyl}amino-3-methyl-6-trifluoromethyl-4(3H)-pyrimidinone]		100	Insecticidal ratio (%) (diamondback moth larvae): 100%
